{"source": "the supplement of paper PMC10307832", "experiment_in_all_cases": "relative viability (nuclei count vs DMSO), 5 days (fraction); higher = more cells survive", "key": {"PC-14": {"system": "PC-14", "in_short": "(§1)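 Lung cancer cell lines were seeded in 1536-well plates and dosed by pin tool the next day, with either a single drug or a fixed anchor-drug dose combined with five library-drug doses (not always all listed) spaced in √10 steps. Five days later, one step fixed the cells and stained their nuclei (final 0.05% Triton X-100, 1% formaldehyde, 1 ug/ml Hoechst), and nuclei were counted on 4× images. Relative viability is the nuclei count in treated wells divided by the count in vehicle wells, and each value is the median of duplicate plates.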"}, "H3255": {"system": "H3255", "in_short": "as §1"}, "SW 1573": {"system": "SW 1573", "in_short": "as §1"}, "NCI-H1915": {"system": "NCI-H1915", "in_short": "as §1"}, "BEN": {"system": "BEN", "in_short": "as §1"}, "NCI-H358": {"system": "NCI-H358", "in_short": "as §1"}, "NCI-H661": {"system": "NCI-H661", "in_short": "as §1"}, "NCI-H1993": {"system": "NCI-H1993", "in_short": "as §1"}, "NCI-H727": {"system": "NCI-H727", "in_short": "as §1"}, "NCI-H2347": {"system": "NCI-H2347", "in_short": "as §1"}, "HOP-62": {"system": "HOP-62", "in_short": "as §1"}, "NCI-H2023": {"system": "NCI-H2023", "in_short": "as §1"}, "NCI-H2342": {"system": "NCI-H2342", "in_short": "as §1"}, "NCI-H2085": {"system": "NCI-H2085", "in_short": "as §1"}, "NCI-H2126": {"system": "NCI-H2126", "in_short": "as §1"}, "EMC-BAC-2": {"system": "EMC-BAC-2", "in_short": "as §1"}, "NCI-H647": {"system": "NCI-H647", "in_short": "as §1"}, "NCI-H1563": {"system": "NCI-H1563", "in_short": "as §1"}, "LXF-289": {"system": "LXF-289", "in_short": "as §1"}, "NCI-H2009": {"system": "NCI-H2009", "in_short": "as §1"}, "SK-LU-1": {"system": "SK-LU-1", "in_short": "as §1"}, "NCI-H322M": {"system": "NCI-H322M", "in_short": "as §1"}, "NCI-H1650": {"system": "NCI-H1650", "in_short": "as §1"}, "LCLC-97TM1": {"system": "LCLC-97TM1", "in_short": "as §1"}}}
{"compound": "CC(C)Oc1cc(Nc2nc(N[C@@H](C)c3ccc(F)cn3)ncc2Cl)n[nH]1", "note": "[AZ23] + Cc1nc(Nc2ncc(C(=O)Nc3c(C)cccc3Cl)s2)cc(N2CCN(CCO)CC2)n1 [Dasatinib] (partner 0.075 µM)", "values": [{"measurement": "relative viability", "setting": "PC-14; first compound 0.03162 µM", "value": 0.273}, {"measurement": "relative viability", "setting": "PC-14; first compound 0.3162 µM", "value": 0.246}, {"measurement": "relative viability", "setting": "H3255; first compound 0.01 µM", "value": 0.364}, {"measurement": "relative viability", "setting": "H3255; first compound 0.03162 µM", "value": 0.66}, {"measurement": "relative viability", "setting": "H3255; first compound 0.3162 µM", "value": 0.418}, {"measurement": "relative viability", "setting": "SW 1573; first compound 0.01 µM", "value": 0.747}, {"measurement": "relative viability", "setting": "SW 1573; first compound 0.03162 µM", "value": 0.605}, {"measurement": "relative viability", "setting": "SW 1573; first compound 0.3162 µM", "value": 0.52}, {"measurement": "relative viability", "setting": "NCI-H1915; first compound 0.01 µM", "value": 0.33}, {"measurement": "relative viability", "setting": "NCI-H1915; first compound 0.03162 µM", "value": 0.342}, {"measurement": "relative viability", "setting": "NCI-H1915; first compound 0.3162 µM", "value": 0.29}, {"measurement": "relative viability", "setting": "BEN; first compound 0.01 µM", "value": 0.309}, {"measurement": "relative viability", "setting": "BEN; first compound 0.03162 µM", "value": 0.398}, {"measurement": "relative viability", "setting": "BEN; first compound 0.3162 µM", "value": 0.304}, {"measurement": "relative viability", "setting": "NCI-H358; first compound 0.01 µM", "value": 0.144}, {"measurement": "relative viability", "setting": "NCI-H358; first compound 0.03162 µM", "value": 0.161}, {"measurement": "relative viability", "setting": "NCI-H358; first compound 0.3162 µM", "value": 0.123}, {"measurement": "relative viability", "setting": "NCI-H661; first compound 0.01 µM", "value": 0.948}, {"measurement": "relative viability", "setting": "NCI-H661; first compound 0.03162 µM", "value": 1.02}, {"measurement": "relative viability", "setting": "NCI-H661; first compound 0.3162 µM", "value": 0.847}, {"measurement": "relative viability", "setting": "NCI-H1993; first compound 0.01 µM", "value": 0.501}, {"measurement": "relative viability", "setting": "NCI-H1993; first compound 0.03162 µM", "value": 0.613}, {"measurement": "relative viability", "setting": "NCI-H1993; first compound 0.3162 µM", "value": 0.522}, {"measurement": "relative viability", "setting": "NCI-H727; first compound 0.01 µM", "value": 0.393}, {"measurement": "relative viability", "setting": "NCI-H727; first compound 0.03162 µM", "value": 0.402}, {"measurement": "relative viability", "setting": "NCI-H727; first compound 0.3162 µM", "value": 0.362}, {"measurement": "relative viability", "setting": "NCI-H2347; first compound 0.01 µM", "value": 0.235}, {"measurement": "relative viability", "setting": "NCI-H2347; first compound 0.03162 µM", "value": 0.298}, {"measurement": "relative viability", "setting": "NCI-H2347; first compound 0.3162 µM", "value": 0.274}, {"measurement": "relative viability", "setting": "HOP-62; first compound 0.01 µM", "value": 0.702}, {"measurement": "relative viability", "setting": "HOP-62; first compound 0.03162 µM", "value": 0.684}, {"measurement": "relative viability", "setting": "HOP-62; first compound 0.3162 µM", "value": 0.631}, {"measurement": "relative viability", "setting": "NCI-H2023; first compound 0.03162 µM", "value": 0.627}, {"measurement": "relative viability", "setting": "NCI-H2023; first compound 0.3162 µM", "value": 0.57}, {"measurement": "relative viability", "setting": "NCI-H2342; first compound 0.01 µM", "value": 0.299}, {"measurement": "relative viability", "setting": "NCI-H2342; first compound 0.03162 µM", "value": 0.31}, {"measurement": "relative viability", "setting": "NCI-H2342; first compound 0.3162 µM", "value": 0.339}, {"measurement": "relative viability", "setting": "NCI-H2085; first compound 0.01 µM", "value": 0.232}, {"measurement": "relative viability", "setting": "NCI-H2085; first compound 0.03162 µM", "value": 0.214}, {"measurement": "relative viability", "setting": "NCI-H2085; first compound 0.3162 µM", "value": 0.199}, {"measurement": "relative viability", "setting": "NCI-H2126; first compound 0.01 µM", "value": 0.573}, {"measurement": "relative viability", "setting": "NCI-H2126; first compound 0.03162 µM", "value": 0.715}, {"measurement": "relative viability", "setting": "NCI-H2126; first compound 0.3162 µM", "value": 0.56}, {"measurement": "relative viability", "setting": "EMC-BAC-2; first compound 0.01 µM", "value": 0.308}, {"measurement": "relative viability", "setting": "EMC-BAC-2; first compound 0.03162 µM", "value": 0.381}, {"measurement": "relative viability", "setting": "EMC-BAC-2; first compound 0.3162 µM", "value": 0.364}, {"measurement": "relative viability", "setting": "NCI-H647; first compound 0.01 µM", "value": 0.174}, {"measurement": "relative viability", "setting": "NCI-H647; first compound 0.03162 µM", "value": 0.215}, {"measurement": "relative viability", "setting": "NCI-H647; first compound 0.3162 µM", "value": 0.17}, {"measurement": "relative viability", "setting": "NCI-H1563; first compound 0.01 µM", "value": 0.491}, {"measurement": "relative viability", "setting": "NCI-H1563; first compound 0.03162 µM", "value": 0.533}, {"measurement": "relative viability", "setting": "NCI-H1563; first compound 0.3162 µM", "value": 0.469}, {"measurement": "relative viability", "setting": "LXF-289; first compound 0.01 µM", "value": 0.205}, {"measurement": "relative viability", "setting": "LXF-289; first compound 0.03162 µM", "value": 0.275}, {"measurement": "relative viability", "setting": "LXF-289; first compound 0.3162 µM", "value": 0.189}, {"measurement": "relative viability", "setting": "NCI-H2009; first compound 0.01 µM", "value": 0.278}, {"measurement": "relative viability", "setting": "NCI-H2009; first compound 0.03162 µM", "value": 0.341}, {"measurement": "relative viability", "setting": "NCI-H2009; first compound 0.3162 µM", "value": 0.279}, {"measurement": "relative viability", "setting": "SK-LU-1; first compound 0.03162 µM", "value": 0.193}, {"measurement": "relative viability", "setting": "SK-LU-1; first compound 0.3162 µM", "value": 0.152}, {"measurement": "relative viability", "setting": "NCI-H322M; first compound 0.03162 µM", "value": 0.255}, {"measurement": "relative viability", "setting": "NCI-H322M; first compound 0.3162 µM", "value": 0.256}, {"measurement": "relative viability", "setting": "NCI-H1650; first compound 0.03162 µM", "value": 0.33}, {"measurement": "relative viability", "setting": "NCI-H1650; first compound 0.3162 µM", "value": 0.299}, {"measurement": "relative viability", "setting": "LCLC-97TM1; first compound 0.01 µM", "value": 0.924}, {"measurement": "relative viability", "setting": "LCLC-97TM1; first compound 0.03162 µM", "value": 0.889}, {"measurement": "relative viability", "setting": "LCLC-97TM1; first compound 0.3162 µM", "value": 0.829}]}
